Reference: paper PMC6792352, “Limited Chemical Structural Diversity Found to Modulate Thyroid Hormone Receptor in the Tox21 Chemical Library” (Environmental Health Perspectives, 2019)
Structures can show the parent of a compound that is named as a salt. Positions of bridges follow the written chain, without caps; N, C: chain ends. Non-standard residues stand in square brackets, D forms with d. Residues, ends and D or L forms follow the SMILES beside them. Orn = NCCC[C@H](N)C(=O)O; Mpa = O=C(O)CCS

experiment: in vitro; conditions: rat, gh3-tre-luc cells, AC50 (uM) modified / 1000

Structure (SMILES)	CC50 at 24 h [µM]
CC(CN(C)C)C(C)(O)Cc1ccc(Cl)cc1 (stereo not drawn) [Clobutinol hydrochloride]	> 50
Oc1ccc2[nH]cc(CCCCN3CC=C(c4ccccc4)CC3)c2c1 [Roxindole]	7.71
CC1(C)CC(N)CC(C)(C)N1 [2,2,6,6-Tetramethylpiperidin-4-amine]	> 90
NC=O [Formamide]	> 100
CCOc1ccc(C[C@H]2NC(=O)CCSSC[C@@H](C(=O)N3CCC[C@H]3C(=O)N[C@@H](CCCN)C(=O)NCC(N)=O)NC(=O)[C@H](CC(N)=O)NC(=O)[C@H]([C@@H](C)O)NC(=O)[C@H]([C@@H](C)CC)NC2=O)cc1 [Atosiban] ([Mpa][dY](Et)ITNCP[Orn]G-NH2; disulfide 1-6)	> 50
O=C(/C=C/c1ccccc1)NCCO [Idrocilamide]	> 50
CC1=CC[C@@]23C[C@@H]1C(C)(C)[C@@H]2CC[C@H]3C [(-)-alpha-Cedrene]	> 90
Cc1cc(OI)c(C(C)C)cc1-c1cc(C(C)C)c(OI)cc1C [Thymol iodide]	> 50
Cc1ccccc1NC(=N)Nc1ccccc1C [1,3-Bis(2-methylphenyl)guanidine]	> 90
COCCOCCOCCOCCO [2,5,8,11-Tetraoxatridecan-13-ol]	> 90
Cc1ccccc1C(=O)Nc1cccc(OC(C)C)c1 [Mepronil]	> 90
O=C(c1ccc2c(c1)C(=O)OC2=O)c1ccc2c(c1)C(=O)OC2=O [Benzophenonetetracarboxylic dianhydride]	> 90
C=C[C@H]1C[N@@]2CC[C@H]1C[C@H]2[C@H](O)c1ccnc2ccc(OC)cc12 [Quinine hemisulfate salt monohydrate]	> 50
CC(=O)O[C@H]1C[C@H](O[C@H]2[C@@H](O)C[C@H](O[C@H]3[C@@H](O)C[C@H](O[C@H]4CC[C@@]5(C)[C@H](CC[C@@H]6[C@@H]5C[C@@H](O)[C@]5(C)[C@@H](C7=CC(=O)OC7)CC[C@]65O)C4)O[C@@H]3C)O[C@@H]2C)O[C@H](C)[C@H]1O[C@@H]1O[C@H](CO)[C@@H](O)[C@H](O)[C@H]1O [Lanatoside C]	> 50
CCCCC1C(=O)N(c2ccccc2)N(c2ccccc2)C1=O [Phenylbutazone]	> 90
O=C(O)c1cccnc1 [Nicotinic acid]	> 50
c1ccc2c(c1)Nc1ccccc1S2 [Phenothiazine]	> 90
CCCCCCCC/C=C\CCCCCCCC(=O)N(CCO)CCO [(9Z)-N,N-Bis(2-hydroxyethyl)octadec-9-enamide]	43.9
c1ccc2c(c1)[nH]c1ccccc12 [Carbazole]	> 90
COc1ccc(C(=O)/C(Br)=C\C(=O)O)cc1 [Cytembena]	44
O=C1CCCN1C1CCCCC1 [1-Cyclohexylpyrrolidin-2-one]	> 90
Cc1ccc(N)cc1S(=O)(=O)O [5-Amino-2-methylbenzenesulfonic acid]	> 90
CC1CN1 (stereo not drawn) [Propyleneimine]	> 90
C=C(C)[C@H]1CC=C(C)CC1 [D-Limonene]	> 90
NCc1ccc(S(N)(=O)=O)cc1 [Mafenide hydrochloride]	> 20

Structure (SMILES)	CC50 at 24 h [µM]
CCCCCBr [1-Bromopentane]	> 100
CCCCCCCCCOS(=O)(=O)O [Sulfuric acid, monononyl ester, sodium salt]	> 90
ClC(Cl)c1ccccc1 [Benzal chloride]	> 90
O=C(O)CCC(=O)C(=O)O [alpha-Ketoglutaric acid]	> 90
CNCC(=O)N[C@@H](CCCN=C(N)N)C(=O)N[C@H](C(=O)N[C@@H](Cc1ccc(O)cc1)C(=O)N[C@H](C(=O)N[C@@H](Cc1cnc[nH]1)C(=O)N1CCC[C@H]1C(=O)N[C@@H](C)C(=O)O)C(C)C)C(C)C [Saralasin]	> 50
CCCCCOC(=O)Nc1nc(=O)n([C@@H]2O[C@H](C)[C@@H](O)[C@H]2O)cc1F [Capecitabine]	> 50
NS(=O)(=O)c1cc2c(cc1Cl)NC(CC1CCCC1)NS2(=O)=O (stereo not drawn) [Cyclopenthiazide]	> 20
COC(=O)c1cc(Oc2ccc(Cl)cc2Cl)ccc1[N+](=O)[O-] [Bifenox]	> 90
CC1(CO)CN(c2ccccc2)NC1=O (stereo not drawn) [4-(Hydroxymethyl)-4-methyl-1-phenylpyrazolidin-3-one]	> 90
O=C1CC2(CCCC2)CC(=O)N1CCCCN1CCN(c2ncccn2)CC1 [Buspirone]	89.7
CC(C)[C@@H]1CC[C@@H](C)C[C@H]1O [Menthol]	> 90
CC(C)OC(=O)C(C)(C)Oc1ccc(C(=O)c2ccc(Cl)cc2)cc1 [Fenofibrate]	78.6
CCCCCC(C=O)=Cc1ccccc1 [Pentylcinnamaldehyde]	> 90
CC(C)(C)C(=O)CC(=O)C(C)(C)C [Dipivaloylmethane]	> 100
O=c1[nH]c(=O)n([C@H]2C[C@H](O)[C@@H](CO)O2)cc1Br [5-Bromo-2'-deoxyuridine]	> 90
CC(C)=CCCC(C)CCOC=O (stereo not drawn) [3,7-Dimethyloct-6-en-1-yl formate]	> 90
CCc1cc(SCc2sc(-c3ccc(C(F)(F)F)cc3)nc2CN2CCN(c3ccc(OC)cc3)CC2)ccc1OCC(=O)O [PharmaGSID_47315]	22.4
O=C(CCC1CCN(Cc2ccccc2)CC1)c1ccc2c(c1)NCCCC2 [Zanapezil fumerate]	> 50
NCCCC(N)(C(=O)O)C(F)F (stereo not drawn) [Eflornithine hydrochloride]	> 50
CCCCOCCOCCOCCO [2-[2-(2-Butoxyethoxy)ethoxy]ethanol]	> 90
Nc1ccncc1 [4-Aminopyridine]	> 90
COC(=O)c1ccc(C(=O)O)cc1 [1,4-Benzenedicarboxylic acid, monomethyl ester]	> 90
O=C=NCCCCCCN=C=O [1,6-Diisocyanatohexane]	> 90
CCCCCCCCCC(=O)O [Decanoic acid]	> 50
CSc1ccc(Oc2ccc(S(N)(=O)=O)cc2CN(C)C)cc1C [UK-416244]	36.3

Structure (SMILES)	CC50 at 24 h [µM]
Cc1cc(CC(=O)O)n(C)c1C(=O)c1ccc(Cl)cc1 [Sodium zomepirac]	> 90
NC(=S)N/N=C/c1cccnc1 [Nicothiazone]	> 50
C[C@H]1O[C@@H](O[C@H]2CC[C@@]3(C)[C@H](CC[C@@H]4[C@@H]3C[C@@H](O)[C@]3(C)[C@@H](C5=CC(=O)OC5)CC[C@]43O)C2)C[C@H](O)[C@@H]1O[C@H]1C[C@H](O)[C@H](O[C@H]2C[C@H](O)[C@H](O[C@@H]3O[C@H](CO)[C@@H](O)[C@H](O)[C@H]3O)[C@@H](C)O2)[C@@H](C)O1 [Deslanoside]	> 50
CCOc1ccccc1C(N)=O [2-Ethoxybenzamide]	> 90
Clc1ccccc1 [Chlorobenzene]	> 90
O=C1c2ccccc2C(=O)c2c(O)c(O)cc(O)c21 [Purpurin]	71.9
Cc1ncc([N+](=O)[O-])n1CCO [Metronidazole]	> 50
CCSCC [Diethyl sulfide]	> 100
CCCCCCCC(=O)OCC(O)CO (stereo not drawn) [Glyceryl monooctanoate]	> 90
CCCCCOC(=O)CCCC [Pentyl valerate]	> 90
COc1ccc2[nH]cc(CCNC(C)=O)c2c1 [Melatonin]	> 90
O=C1c2c(O)ccc(O)c2C(=O)c2c(NCCNCCO)ccc(NCCNCCO)c21 [Mitoxantrone dihydrochloride]	0.988
O=C(C(=O)c1ccccc1)c1ccccc1 [1,2-Diphenylethanedione]	> 90
O=C(O)c1cc(N=Nc2ccc([N+](=O)[O-])cc2)ccc1O [Alizarin Yellow R]	58
Clc1c(Cl)c(Cl)c(Cl)c(Cl)c1Cl [Hexachlorobenzene]	> 5
CO[SiH](C)C [Methylpolysilicone]	> 100
Nc1ccccc1O [2-Aminophenol]	40.6
C#C[C@]1(O)CC[C@H]2[C@@H]3CCc4cc(OC)ccc4[C@H]3CC[C@@]21C [Mestranol]	> 90
c1cc2c3c(cccc3c1)CC2 [Acenaphthene]	> 90
CCCCSCCCC [Dibutyl sulfide]	> 90
CCCC1O[C@@H]2C[C@H]3[C@@H]4CCC5=CC(=O)C=C[C@]5(C)[C@H]4[C@@H](O)C[C@]3(C)[C@]2(C(=O)CO)O1 (stereo partly drawn) [Budesonide]	> 90
CCCCCCCC/C=C/CCCOC(C)=O [(E)-4-Tridecen-l-yl acetate]	> 90
CC1=CCC2C(C1)C2(C)C (stereo not drawn) [3-Carene]	> 90
CN1CCN(CC/C=C2/c3ccccc3Sc3ccc(S(=O)(=O)N(C)C)cc32)CC1 [Thiothixene]	10.7

same assay, conditions: rat, gh3-tre-luc cells, AC50 (uM) modified / 1000, Tox21_110001=Tox21_111908; viability, 1 nM T3 present, 24 h

Structure (SMILES)	CC50 at 24 h [µM]
CCCC(=O)OC(C(Cl)(Cl)Cl)P(=O)(OC)OC (stereo not drawn) [Butonate]	> 50

same assay, conditions: rat, gh3-tre-luc cells, AC50 (uM) modified / 1000, Tox21_110001=Tox21_112075; viability, 1 nM T3 present, 24 h

Structure (SMILES)	CC50 at 24 h [µM]
COP(=S)(OC)Oc1ccc(Sc2ccc(OP(=S)(OC)OC)cc2)cc1 [Temephos]	> 50

same assay, conditions: rat, gh3-tre-luc cells, AC50 (uM) modified / 1000, Tox21_110001=Tox21_200580; viability, 1 nM T3 present, 24 h

Structure (SMILES)	CC50 at 24 h [µM]
CNC [Dimethylammonium nitrate]	> 90

same assay, conditions: rat, gh3-tre-luc cells, AC50 (uM) modified / 1000, Tox21_110001=Tox21_301029; viability, 1 nM T3 present, 24 h

Structure (SMILES)	CC50 at 24 h [µM]
CCCCOC(=O)[C@@H](C)Oc1ccc(Oc2ccc(C#N)cc2F)cc1 [Cyhalofop-butyl]	> 90

same assay, conditions: rat, gh3-tre-luc cells, AC50 (uM) modified / 1000, Tox21_110001=Tox21_301746; viability, 1 nM T3 present, 24 h

Structure (SMILES)	CC50 at 24 h [µM]
CNC=Nc1ccc(C)cc1C [N'-(2,4-Dimethylphenyl)-N-methylformamidine]	> 90

same assay, conditions: rat, gh3-tre-luc cells, AC50 (uM) modified / 1000, Tox21_110001=Tox21_301778; viability, 1 nM T3 present, 24 h

Structure (SMILES)	CC50 at 24 h [µM]
COP(=S)(OC)Oc1ccc(Sc2ccc(OP(=S)(OC)OC)cc2)cc1 [Temephos]	> 90

same assay, conditions: rat, gh3-tre-luc cells, AC50 (uM) modified / 1000, Tox21_110001=Tox21_302025; viability, 1 nM T3 present, 24 h

Structure (SMILES)	CC50 at 24 h [µM]
CCC(=O)c1ccccc1 [1-Phenylpropan-1-one]	> 90
